As a reminder, the MRT last is the average time that molecules of a dose stay in the body. The half-life is the time needed for the level to fall by half in the phase considered. A word on the Cmax: it is the peak of the concentration-time curve. As a reminder, the Tmax is the time at which the peak concentration occurs.

The structures appear in SMILES notation. Read-outs that look alike come from different tables or passages of the source.

The data set is described as follows: In vivo oral pharmacokinetic study in SD rats. On the set-up: species or system Sprague-Dawley rats. As to conditions: for MRT last / half-life / k el / Cmax / Tmax / AUC(0-t): Sprague-Dawley, rat, blood, po; for k el: read-out: Ke (converted); for AUC(0-t): read-out: AUC0–24h. The method, then:
SD rats (five rats/group) were individually housed in stainless-steel metabolic cages, which allowed for the separation and collection of urine and feces. The rats were fasted overnight with ad libitum access to water prior to the day of the experiment. After a rat was anesthetized with isoflurane gas, the prepared suspension of test compound in an oral suspension vehicle was administered to the animals via oral gavage at a dose of 20 mg/kg for each compound in the mixture of MG and PGG or at 143 mg/kg MSKE, which is equivalent to approximate doses of 20 mg/kg PGG and 0.13 mg/kg MG. Subsequently, the rats’ tails were snipped near the tip to collect blood samples (approximately 50 µL), which were collected in heparinized tubes at 0, 0.50, 1, 2, 4, 6, 8 and 24 h. To investigate the excretion of phenolic compounds, urine and feces were collected between 0–24 h post-administration into tubes containing penicillin G (200 mg) and dry tubes, respectively, which were pre-weighted before use. After completing the pharmacokinetic study, the urine volume and dry feces weights were recorded, and all samples were stored at −80 °C until analysis.
The blood and urine samples were prepared according to our previously reported methods. The fecal samples were prepared by adding 30 mL methanol to the sample, and the mixture was then vortexed and sonicated for 30 min to obtain the fecal lysates, which were extracted via the same method.
The pharmacokinetic parameters of MG and PGG were calculated based on the non-compartmental method using WinNonlin 3.3 (Pharsight Corporation, Mountain View, CA, USA). The total mass of analytes was calculated according to the following equations (Equations (3)–(6)): The mass recovery (%) = (total mass in blood + total mass in urine + total mass in feces)/initial mass of analyte (3) Total mass in blood = C24h in blood × rat blood volume (70 mL/kg of body weight) (4) Total mass in urine = C0–24h in urine × volume of urine (0–24 h) (5) Total mass in feces = C0–24h in fecal lysate × volume of fecal lysate (30 mL) (6) where C24h in the blood is the concentration of analyte found in the blood sample at 24 h, and C0–24h in the urine and C0–24h in the fecal lysate are the concentrations of the analyte found in the urine and fecal samples, respectively, between 0 and 24 h.
A Waters UPLC system coupled with an ESI triple quadrupole mass spectrometer (QTRAP5500, AB Sciex, Foster City, CA, USA) was used to analyze MG and PGG in biological samples. The LC–MS/MS conditions were previously published. The UPLC conditions were Kinetex C18 column at 50 mm × 2.1 mm I.D. and 5 µm particle size (Phenomenex Inc.); mobile phase A at 0.1% formic acid in deionized water; mobile phase B at 100% acetonitrile; gradient at 0.0–0.5 min (0% B), 0.5–1.0 min (0%–30% B), 1.0–2.0 min (30%–90% B), 2.0–3.0 min (90% B), 3.0–3.5 min (90%–0% B) and 3.5–5.0 min (0% B); flow rate at 0.5 mL/min; column temperature at 40 °C; sample temperature at 20 °C; and injection volume at 10 µL. The mass spectrometer employed an MRM method in the negative ion mode. The instrument-dependent parameters for obtaining the mass spectra were set as follows: ionspray voltage at −4.5 kV; ion source temperature at 550 °C; gas 1 at 60 psi; gas 2 at 60 psi; and curtain gas at 20 psi. The unit mass resolution was set in both mass-resolving quadruples Q1 and Q3. Because of the absence of authentic standard for the glucuronide and sulfate metabolites of MG and PGG, qualification of the metabolites in the biological samples was accomplished using the compound-dependent parameters for MG and PGG.

[1] abbreviates: MSKE 143 mg/kg (20 mg/kg PGG and 0.13 mg/kg MG).
The mark [2] stands for this setting: mixture of MG and PGG 20 mg/kg each.
The mark [3] stands for this setting: mixture 20 mg/kg, p.o. vs i.p. (ref 14).
[4] abbreviates: p.o., MSKE 143 mg/kg (20 mg/kg PGG and 0.13 mg/kg MG).
Where [5] appears, read: p.o., mixture of MG and PGG 20 mg/kg each.

On to `COC(=O)c1cc(O)c(O)c(O)c1` [MG, methyl gallate], for which, under setting [1], the MRT last amounted to 11.1 ± 0.6 h, the half-life was 65.2 ± 49.4 h, the k el is 4.17e-06 s⁻¹ and the concentration peaked (Cmax) at 240 ± 60 nM. For the same molecule, under setting [1], the Tmax turned out to be 0.5 h and the AUC(0-t) was found to be 3.57 ± 0.79 µM·h. Moreover, under setting [2], the MRT last was 8.69 ± 1.57 h, the half-life was 24.8 ± 15.7 h, the k el was 1e-05 s⁻¹ and the Cmax stood at 1130 ± 1060 nM. Also, under setting [2], the time to peak (Tmax) turned out to be 2.3 ± 1.64 h and the AUC(0-t) was found to be 6.47 ± 0.75 µM·h. Under setting [3], the “AUC0–24h, oral lower than intraperitoneal” value is recorded as about 17 folds; the “Cmax, oral lower than intraperitoneal” value is about 31 folds; the “Tmax, oral compared with intraperitoneal (slower absorption)” value was “approximately 3 folds”; the “Vd, oral higher than intraperitoneal” value is “approximately 19 folds”. The “t1/2, oral longer than intraperitoneal” value under setting [3] is recorded as about 1.4 folds. Moreover, under setting [4], the CL worked out at 35.2 ± 21 mL/min/kg and the Vd was 135.39 ± 21.94 L/kg. In addition, under setting [5], the CL was 5534.3 ± 1662 mL/min/kg and the “time of second maximum peak of blood concentration (double-peak profile)” value came to 4 h.

These data come from PMC6332320, “Factors Influencing Oral Bioavailability of Thai Mango Seed Kernel Extract and Its Key Phenolic Principles” (Molecules, 2015).
